Measured values reported in publication PMC13428274 (ACS infectious diseases, 2025).

Target: BlaR (Staphylococcus aureus, UniProt P18357)
Test: SPR steady-state fit, immobilized sensor domain
Type: binding

BlaR, sequence (P18357 332-585): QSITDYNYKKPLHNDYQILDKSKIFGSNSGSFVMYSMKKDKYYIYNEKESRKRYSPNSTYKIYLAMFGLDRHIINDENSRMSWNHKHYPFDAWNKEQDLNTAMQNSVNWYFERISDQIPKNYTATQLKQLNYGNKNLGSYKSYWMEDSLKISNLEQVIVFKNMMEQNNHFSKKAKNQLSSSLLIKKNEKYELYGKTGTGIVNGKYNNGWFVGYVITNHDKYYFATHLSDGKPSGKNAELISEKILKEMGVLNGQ

Cn1ncc2c(Nc3ccc(Br)cc3)nc(Nc3ccc(Br)cc3)nc21 [compound 1, N^4,N^6-bis(4-bromophenyl)-1-methyl-1H-pyrazolo[3,4-d]pyrimidine-4,6-diamine]
Kd: 31 ± 2 µM
